Experimental data: patent US5155126A, “Treatment of central nervous system disorders with pyrazole, pyrrole and triazole angiotensin-II receptor antagonists” (E. I. du Pont de Nemours and Company, priority 1991, dated 1992)
Where “and” joins values, the source holds several entries; their conditions need not be identical. Equal entries are not always repeated. Entries after “also recorded” stand apart in the source; their conditions may differ.

Key:
[1] = tested on: AII-2 receptor (AII receptor subtype-2); conditions: in words; cited from earlier work
AII-1 receptor = AII-1 receptor antagonism (statement); conditions: in words
[2] = tested on: renin-induced disruption of passive avoidance retention; experiment: Renin-disrupted passive avoidance retention; format: in vivo, male Sprague-Dawley rats; conditions: for effect on memory / renin-induced amnesia: IVT, in words
Protocol: Experimentally naive male Sprague-Dawley rats […] (Charles River Breeding Laboratories, Kingston, N.Y.), weighing between 175 to 200 gm were used. The animals were housed four per cage (45.0 L × 20.0 H × 26.0 W cm) with free access to food and water. They were maintained on a 12 h light/dark cycle (lights on 0600 h) and at a room temperature of 22±1° C. with relative humidity of 50±10%.
The experimental sessions were conducted in a two-compartment passive avoidance box. One compartment, made of clear plastic with a perforated clear plastic floor, measured 21(L)=24.5(H)=17(W) cm and was illuminated with a 60 watt incandescent light bulb placed 36 cm above the floor. The other compartment, made of black plastic, measured 30.5 (L)×20.3 (H)×21.5 (W) cm with a floor made of 4 mm stainless steel rods spaced 1.2 cm apart. A grid floor shocker (Coulbourn Instruments) was connected to the steel rods and provided scrambled footshock. The two compartments were separated by a solenoid-operated slide door (Lafayette Instrument Co., Lafayette, Ind.). An electronic counter (Coulbourn Instruments), triggered by the opening or closing of the slide door, recorded acquisition and retention latencies (latencies were defined as the time it took an animal to enter the dark compartment).
Passive avoidance training began by placing the rat into the clear compartment of the two-compartment passive avoidance box. Following a 10 sec delay, the slide door to the dark compartment was raised. Once the rat moved completely into the dark compartment (all four paws on the shock grid floor) the slide door was lowered, and after a 10 sec delay, a 1.0 mA shock was applied to the grid floor for three sec. A second three s shock was delivered after an additional 10 sec delay. The rats were immediately removed from the dark compartment and returned to their home cage. A retention test was given 24 h later. It proceeded in the same manner as the training session except that no shock was applied to the grid floor when the rats were provided access to the dark compartment for a maximum of 300 sec.
All drugs were administered IVT 60 minutes prior to acquisition training in a volume of 5 μL. Doses are expressed as the free base weight of each compound.

[3] = tested on: AII binding sites in the brain; experiment: Binding of AII antagonists to sections of brain slices; conditions: in words
uphill avoidance = conditions: acute 30 mg/kg PO; in words; cited from earlier work
[4] = tested on: scopolamine-induced impairment of eight arm radial maze performance; conditions: 3 mg/kg IP; in words; cited from earlier work
[5] = tested on: ACh in the striatum and hypothalamus; conditions: acute or repeated administration; in words; cited from earlier work
[6] = tested on: scopolamine-induced PA amnesia; conditions: three times per day at 1, 3 and 10 mg/kg PO; in words; cited from earlier work
[7] = tested on: memory of previously learned tasks; anticholinergic effect on performance; conditions: in words; cited from earlier work
avoidance learning = conditions: renin into lateral ventricle; captopril IVT prior to renin; in words; cited from earlier work
[8] = tested on: scopolamine-induced disruption of performance; conditions: daily treatment; in words; cited from earlier work
[9] = tested on: light/dark habituation performance; conditions: subchronic treatment; in words; cited from earlier work
[10] = tested on: retention of a passive avoidance response; conditions: injected into dorsal neostriatum; in words; cited from earlier work
[11] = tested on: potassium-stimulated release of ACh in entorhinal cortex; conditions: in vitro, entorhinal cortex from rat brain; in words; cited from earlier work
[12] = tested on: AII in cerebrospinal fluid; conditions: after renin IVT; increased from 40; cited from earlier work

For `O[C@H](CS)[C@H](O)CS` (racemic) [DTT, dithiothreitol], the “inactivation of AII-2 receptor by DTT” value [1] is given as “resistant to DTT inactivation”.

For `CCCc1nc(C(F)(F)F)c(C(=O)O)n1Cc1ccc(-c2ccccc2-c2nnn[nH]2)cc1` [Compound C, 2-n-propyl-1-[(2'-(1H-tetrazol-5-yl)biphenyl-4-yl)methyl]-4-trifluoromethylimidazole-5-carboxylic acid], the “AII-1 receptor antagonist activity” value (AII-1 receptor) was “AII-1 receptor antagonists” and the “effect on memory / renin-induced amnesia” value [2] was “protected against amnesia”.

In the case of `CCCc1nc(C(F)(F)F)c(CO)n1Cc1ccc(-c2ccccc2-c2nnn[nH]2)cc1` [Compound D, 2-n-propyl-5-hydroxymethyl-1-[(2'-(1H-tetrazol-5-yl)biphenyl-4-yl)methyl]-4-trifluoromethylimidazole], the “AII-1 receptor antagonist activity” value (AII-1 receptor) is reported as “AII-1 receptor antagonists” and the “effect on memory / renin-induced amnesia” value [2] is reported as “protected against amnesia”.

For `Cc1cc(Cn2cnc3c2CC(C(=O)O)N(C(=O)C(c2ccccc2)c2ccccc2)C3)ccc1N` (stereo not shown) [EXP655, 1-(4-amino-3-methylphenyl)methyl-5-diphenylacetyl-4,5,6,7-tetrahydro-1H-imidazo[4,5-c]pyridine-6-carboxylic acid], the “sensitivity of AII binding sites in brain” value [3] was “the majority of binding sites in the brain are DTT-insensitive and EXP655-sensitive” and the “effect on memory / renin-induced amnesia” value [2] was “less effective in preventing amnesia”.

In the case of `CCOC(=O)C(CCc1ccccc1)NC(C)C(=O)N1CC2(CC3CCC2CC3)CC1C(=O)O` (stereo not shown) [Hoe 288], the “performance during retention testing, uphill avoidance” value (uphill avoidance) is listed as “improved performance during retention testing”, the “effect of muscarinic receptor blockade on performance” value [4] is listed as “partially antagonized the effects of muscarinic receptor blockade” and the “change of ACh in striatum and hypothalamus” value [5] is listed as “significant decrease in ACh”. For the same molecule, the “effect on scopolamine-induced PA amnesia” value [6] was “partially reversed the amnesia”.

For `NCCCC[C@H](OP(=O)(O)CCCCc1ccccc1)C(=O)N1CCC[C@H]1C(=O)O` [SQ 29852], the “effect on anticholinergic effect on performance” value [7] is given as “ameliorate, at least in part” and the “effect on memory of previously learned tasks” value [7] is given as “protective effects on memory of previously learned tasks”.

For `C[C@H](CS)C(=O)N1CCC[C@H]1C(=O)O` [captopril], the “effect on avoidance learning” value (avoidance learning) is given as “prevented the renin-induced avoidance disruption”, the “scopolamine-induced disruption of performance” value [8] is given as “prevented” and the “rate of acquisition of light/dark habituation performance” value [9] is given as “increased the rate of acquisition”. The “effect on memory / renin-induced amnesia” value [2] was “prevented”.

For `NC(=O)[C@@H]1CCCN1C(=O)[C@H](Cc1cnc[nH]1)NC(=O)[C@@H]1CCC(=O)N1` [thyrotropin releasing hormone], the “effect on retention of a PA response” value [10] is given as “no effect”.

For “AI: printed "AI, but not AI" in b14 (DRVYIHPFHL; Angiotensin-1; UniProt P01019 25-34, looked up)”, the “effect on potassium-stimulated release of ACh” value (from here on “effect … of ACh”) [11] is given as “reduced potassium-stimulated release of ACh without effects on basal levels”.

For “AII: Angiotensin-II, a circulating hormone thought to act as a neuropeptide in the CNS (DRVYIHPF; Angiotensin-2; UniProt P01019 25-32, looked up)”, the “effect … of ACh” value [11] is listed as “can inhibit the release of ACh” and the “effect on retention of a PA response” value [10] is listed as “disruption in retention of a PA response”.

In the case of “[1-sarcosine, 8-threonine]angiotensin-II”, the “effect … of ACh” value [11] is listed as “antagonized”.

In the case of lysine-8-vasopressin, the “effect on retention of a PA response” value [10] is listed as “no effect”.

B1: renin: Renin (Sigma Chemicals), a stimulator of endogenous AII biosynthesis (protein, UniProt P00797 67-406, looked up)
Renin: LTLGNTTSSVILTNYMDTQYYGEIGIGTPPQTFKVVFDTGSSNVWVPSSKCSRLYTACVYHKLFDASDSSSYKHNGTELTLRYSTGTVSGFLSQDIITVGGITVTQMFGEVTEMPALPFMLAEFDGVVGMGFIEQAIGRVTPIFDNIISQGVLKEDVFSFYYNRDSENSQSLGGQIVLGGSDPQHYEGNFHYINLIKTGVWQIQMKGVSVGSSTLLCEDGCLALVDTGASYISGSTSSIEKLMEALGAKKRLFDYVVKCNEGPTLPDISFHLGGKEYTLTSADYVFQESYSSKKLCTLAIHAMDIPPPTGPTWALGATFIRKFYTEFDRRNNRIGFALAR
In the case of B1, the “effect on avoidance learning” value (avoidance learning) is listed as “disruption of avoidance learning”, the “AII in cerebrospinal fluid” value [12] is listed as “about 5000 fmol per mL” and the “effect on memory / renin-induced amnesia” value [2] is listed as “produces memory deficit; also recorded: dose-related amnesia”. For the same molecule, the “Median Retention Latency” value ([2]; renin 1.0 μg/5 μL IVT alone) was 48 s and 32 s and 27 s and the “Median Retention Latency” value ([2]; renin 5.0 μg/5 μL IVT alone) was 17 s.
